Experiment [1] has as its target TgCDPK1 (Toxoplasma gondii, UniProt Q9BJF5). Description: biochemical. The note with it: read-out: TgCDPK1 IC50.
For experiment [2], the target named is CpCDPK1 (Cryptosporidium parvum (strain Iowa II), UniProt A3FQ16). Description: biochemical. As to conditions: Table 1; KinaseGlo, Syntide 2 peptide substrate; read-out: CpCDPK1 IC50. For orientation: Kinase-Glo reads ATP consumption through a luciferase reaction.
[3] abbreviates: Table 1, KinaseGlo, Syntide 2 peptide substrate.

pIC50: −log10 of the molar value. Like-named read-outs stand apart in the source and are kept apart here.

We go through 36 compounds from patent publication US9518026B2, “5-aminopyrazole-4-carboxamide inhibitors of CDPK1 from T. gondii and C. parvum” (UNIVERSITY OF WASHINGTON THROUGH ITS CENTER FOR …, priority 2013, dated 2016).

CpCDPK1, sequence (A3FQ16 1-538): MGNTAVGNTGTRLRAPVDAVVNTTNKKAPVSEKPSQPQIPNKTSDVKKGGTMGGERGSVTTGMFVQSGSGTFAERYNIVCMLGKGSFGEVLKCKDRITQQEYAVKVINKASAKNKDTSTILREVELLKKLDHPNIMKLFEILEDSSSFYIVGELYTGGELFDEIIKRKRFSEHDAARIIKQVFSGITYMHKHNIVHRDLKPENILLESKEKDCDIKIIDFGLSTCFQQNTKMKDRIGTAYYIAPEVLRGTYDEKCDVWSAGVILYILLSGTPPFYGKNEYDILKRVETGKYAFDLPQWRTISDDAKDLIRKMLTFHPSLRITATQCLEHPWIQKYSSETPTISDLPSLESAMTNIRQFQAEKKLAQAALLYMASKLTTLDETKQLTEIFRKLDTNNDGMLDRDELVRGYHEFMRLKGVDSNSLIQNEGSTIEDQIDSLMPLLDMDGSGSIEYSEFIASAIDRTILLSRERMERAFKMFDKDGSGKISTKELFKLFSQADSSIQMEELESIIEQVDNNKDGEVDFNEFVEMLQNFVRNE
TgCDPK1, sequence (Q9BJF5 1-507): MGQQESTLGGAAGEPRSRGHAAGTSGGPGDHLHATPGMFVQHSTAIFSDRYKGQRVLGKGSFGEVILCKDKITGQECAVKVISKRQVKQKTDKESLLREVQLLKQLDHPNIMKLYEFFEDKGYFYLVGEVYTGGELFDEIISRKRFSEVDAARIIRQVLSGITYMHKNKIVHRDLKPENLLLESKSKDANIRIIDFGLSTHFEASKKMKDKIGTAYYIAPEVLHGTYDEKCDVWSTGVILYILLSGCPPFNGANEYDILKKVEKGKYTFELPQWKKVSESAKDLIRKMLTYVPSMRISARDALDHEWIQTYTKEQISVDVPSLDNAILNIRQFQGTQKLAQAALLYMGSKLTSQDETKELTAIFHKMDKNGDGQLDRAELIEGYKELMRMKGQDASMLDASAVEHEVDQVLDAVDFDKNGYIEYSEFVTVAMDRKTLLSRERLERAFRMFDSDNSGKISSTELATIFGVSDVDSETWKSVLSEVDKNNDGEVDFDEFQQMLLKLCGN

As a reminder, the pIC50 is the IC50 on a negative log10 scale, so that one unit is a factor of ten. As to `CCOc1ccc2ncc(-c3nn(C4CCCCC4)c(N)c3C(N)=O)cc2c1` [Compound 1655, 5-amino-1-cyclohexyl-3-(6-ethoxyquinolin-3-yl)-1H-pyrazole-4-carboxamide], the pIC50 in experiment [1] (setting [3]) and in experiment [2] was under 5.70 in each case.
Consider `CC(C)(C)n1nc(-c2cnc3cc(OC4CCC4)ccc3c2)c(C(N)=O)c1N` [Compound 1630, 5-amino-1-(tert-butyl)-3-(7-cyclobutoxyquinolin-3-yl)-1H-pyrazole-4-carboxamide], for which the negative-log IC50 (pIC50) in experiment [1] (setting [3]) was 8.52; in experiment [2], 8.40.
Consider `CC(C)n1nc(-c2ccc3ccccc3c2)c(C(N)=O)c1N` [Compound 13, 5-amino-1-isopropyl-3-(naphthalen-2-yl)-1H-pyrazole-4-carboxamide], for which the pIC50 in experiment [2] is 8.15.
Still for that read-out and setting: the value for `CC(C)(C)n1nc(-c2cnc3cc(OCC4CC4)ccc3c2)c(C(N)=O)c1N` [Compound 1585, 5-amino-1-(tert-butyl)-3-(7-(cyclopropylmethoxy)quinolin-3-yl)-1H-pyrazole-4-carboxamide] was 8.05.
With `CCOc1ccc2cc(-c3nn(C4CCCCCC4)c(N)c3C(N)=O)ccc2n1` [Compound 1632, 5-amino-1-cycloheptyl-3-(2-ethoxyquinolin-6-yl)-1H-pyrazole-4-carboxamide], the pIC50 in experiment [1] (setting [3]) was 8.15; in experiment [2], 8.22.
`CCOc1ccc2cc(-c3nn(CC(F)(F)F)c(N)c3C(N)=O)cnc2c1` [Compound 1575, 5-amino-3-(7-ethoxyquinolin-3-yl)-1-(2,2,2-trifluoroethyl)-1H-pyrazole-4-carboxamide]: the negative logarithm of the IC50 (pIC50) in experiment [2] is 8.30.
`CC(C)(C)n1nc(-c2cnc3cc(OC4CC4)ccc3c2)c(C(N)=O)c1N` [Compound 1586, 5-amino-1-(tert-butyl)-3-(7-cyclopropoxyquinolin-3-yl)-1H-pyrazole-4-carboxamide]: in experiment [2], the negative-log IC50 (pIC50) is 8.30.
As to `CCOc1ccc2nc(-c3nn(C(C)(C)C)c(N)c3C(N)=O)ccc2c1` [Compound 36, 5-amino-1-(tert-butyl)-3-(6-ethoxyquinolin-2-yl)-1H-pyrazole-4-carboxamide], the negative-log IC50 (pIC50) in experiment [1] is 6.46; in experiment [2] it was 6.41.
With `CC(C)(C)n1nc(-c2ccc3oc(=O)ccc3c2)c(C(N)=O)c1N` [Compound 34, 5-amino-1-(tert-butyl)-3-(2-oxo-2H-chromen-6-yl)-1H-pyrazole-4-carboxamide], the negative logarithm of the IC50 (pIC50) in experiment [1] is 7.49; in experiment [2], 6.70.
With `CCOc1ccc2cc(-c3nn(C(C)C(C)C)c(N)c3C(N)=O)cnc2c1` (centres unmarked) [Compound 1628, 5-amino-3-(7-ethoxyquinolin-3-yl)-1-(3-methylbutan-2-yl)-1H-pyrazole-4-carboxamide], in experiment [2], the negative logarithm of the IC50 (pIC50) was 8.30.
Consider `CCn1nc(-c2ccc3ccccc3c2)c(C(N)=O)c1N` [Compound 12, 5-amino-1-ethyl-3-(naphthalen-2-yl)-1H-pyrazole-4-carboxamide], for which the negative logarithm of the IC50 (pIC50) is 8.10 in experiment [1] and 7.96 in experiment [2].
Take `CCOc1ccc2cc(-c3nn(C(C)C(C)(C)CO)c(N)c3C(N)=O)cnc2c1` (centres unmarked) [Compound 1637, 5-amino-3-(7-ethoxyquinolin-3-yl)-1-(4-hydroxy-3,3-dimethylbutan-2-yl)-1H-pyrazole-4-carboxamide]: the pIC50 is 7.92 in experiment [1] (setting [3]) and 8.40 in experiment [2].
In the same order, the values of `CCOc1ccc2cc(-c3nn(C(C(C)C)C(C)C)c(N)c3C(N)=O)cnc2c1` [Compound 1607, 5-amino-1-(2,4-dimethylpentan-3-yl)-3-(7-ethoxyquinolin-3-yl)-1H-pyrazole-4-carboxamide] are 7.00 and 7.70.
`CCOc1ccc2cc(-c3nn(C(C)C(C)(C)O)c(N)c3C(N)=O)ccc2n1` (centres unmarked) [Compound 1636, 5-amino-3-(2-ethoxyquinolin-6-yl)-1-(3-hydroxy-3-methylbutan-2-yl)-1H-pyrazole-4-carboxamide]: the pIC50 was 7.24 in experiment [1] (setting [3]) and 7.74 in experiment [2].
With `CCOc1ccc2cc(-c3nn(CCO)c(N)c3C(N)=O)cnc2c1` [Compound 1577, 5-amino-3-(7-ethoxyquinolin-3-yl)-1-(2-hydroxyethyl)-1H-pyrazole-4-carboxamide], the pIC50 in experiment [1] (setting [3]) was 6.74; in experiment [2], 7.05.
For `CC(C)(C)n1nc(-c2cnc3cc(OC(F)(F)F)ccc3c2)c(C(N)=O)c1N` [Compound 1565, 5-amino-1-tert-butyl-3-(7-(trifluoromethoxy)quinolin-3-yl)-1H-pyrazole-4-carboxamide], in that order: 7.51 and 7.42.
`CC(C)(C)n1nc(-c2ccc3ncccc3c2)c(C(N)=O)c1N` [Compound 37, 5-amino-1-(tert-butyl)-3-(quinolin-6-yl)-1H-pyrazole-4-carboxamide]: the results for the negative logarithm of the IC50 (pIC50) in experiment [1] and in experiment [2] were 8.00 and 7.15, respectively.
Turning to `Cc1nc2cc(-c3nn(C(C)(C)C)c(N)c3C(N)=O)ccc2n1C` [Compound 32, 5-amino-1-(tert-butyl)-3-(1,2-dimethyl-1H-benzo[d]imidazol-5-yl)-1H-pyrazole-4-carboxamide], the negative logarithm of the IC50 (pIC50) in experiment [1] (setting [3]) and in experiment [2] was under 5.52 in each case.
Regarding `CCOc1ccc2cc(-c3nn(CC4CCN(C)CC4)c(N)c3C(N)=O)ccc2c1` [Compound 8, 5-amino-3-(6-ethoxynaphthalen-2-yl)-1-((1-methylpiperidin-4-yl)methyl)-1H-pyrazole-4-carboxamide], the pIC50 in experiment [1] was 7.96; in experiment [2], 8.05.
As for `CCOc1ccc2ncc(-c3nn(C(C)(C)C)c(N)c3C(N)=O)cc2c1` [Compound 1654, 5-amino-1-(tert-butyl)-3-(6-ethoxyquinolin-3-yl)-1H-pyrazole-4-carboxamide], the pIC50 in experiment [1] (setting [3]) and in experiment [2] was under 5.70 each time.
`CCOc1ccc2cc(-c3nn(C4CCOC4)c(N)c3C(N)=O)ccc2n1` (centres unmarked) [Compound 1634, 5-amino-3-(2-ethoxyquinolin-6-yl)-1-(tetrahydrofuran-3-yl)-1H-pyrazole-4-carboxamide]: the pIC50 in experiment [2] is 8.52.
For the compound `CC(C)(C)COc1ccc2cc(-c3nn(C(C)(C)C)c(N)c3C(N)=O)cnc2c1` [Compound 1587, 5-amino-1-(tert-butyl)-3-(7-(neopentyloxy)quinolin-3-yl)-1H-pyrazole-4-carboxamide], the pIC50 is 6.76 in experiment [1] (setting [3]) and 6.31 in experiment [2].
In the case of `CC(C)(C)n1nc(-c2ccc3cc(O)ccc3c2)c(C(N)=O)c1N` [Compound 24, 5-amino-1-(tert-butyl)-3-(6-hydroxynaphthalen-2-yl)-1H-pyrazole-4-carboxamide], the pIC50 in experiment [2] is 7.77.
As for `CCOc1ccc2cc(-c3nn(C4(C)CCCCC4)c(N)c3C(N)=O)cnc2c1` [Compound 1640, 5-amino-3-(7-ethoxyquinolin-3-yl)-1-(1-methylcyclohexyl)-1H-pyrazole-4-carboxamide], the negative-log IC50 (pIC50) in experiment [1] (setting [3]) was 8.05; in experiment [2], 8.22.
With `CCOc1ccc2cc(-c3n[nH]c(N)c3C(N)=O)cnc2c1` [Compound 1593, 5-amino-3-(7-ethoxyquinolin-3-yl)-1H-pyrazole-4-carboxamide], the pIC50 in experiment [1] (setting [3]) was 6.79; in experiment [2], 7.17.
With `NC(=O)c1c(-c2ccc3ccccc3c2)nn(CCN2CCOCC2)c1N` [Compound 23, 5-amino-1-(2-morpholinoethyl)-3-(naphthalen-2-yl)-1H-pyrazole-4-carboxamide], the negative logarithm of the IC50 (pIC50) was 8.30 in experiment [1] and 7.74 in experiment [2].
On to `CC(C)(C)n1nc(-c2ccc3ccccc3n2)c(C(N)=O)c1N` [Compound 35, 5-amino-1-(tert-butyl)-3-(quinolin-2-yl)-1H-pyrazole-4-carboxamide], for which the figures for the pIC50 in experiment [1] and in experiment [2] were 7.31 and 6.54, respectively.
For `Cn1c(N)nc2cc(-c3nn(C(C)(C)C)c(N)c3C(N)=O)ccc21` [Compound 33, 5-amino-3-(2-amino-1-methyl-1H-benzo[d]imidazol-5-yl)-1-(tert-butyl)-1H-pyrazole-4-carboxamide], in experiment [1], the negative-log IC50 (pIC50) is 6.14.
Consider `CC(C)Cn1nc(-c2ccc3ccccc3c2)c(C(N)=O)c1N` [Compound 14, 5-amino-1-isobutyl-3-(naphthalen-2-yl)-1H-pyrazole-4-carboxamide], for which, in experiment [2], the negative logarithm of the IC50 (pIC50) was 7.80.
Regarding `CC(C)(C)n1nc(-c2cnc3cc(C(F)(F)F)ccc3c2)c(C(N)=O)c1N` [Compound 1555, 5-amino-1-tert-butyl-3-(7-(trifluoromethyl)quinolin-3-yl)-1H-pyrazole-4-carboxamide], the negative logarithm of the IC50 (pIC50) in experiment [2] is 6.65.
With `Cc1oc2ccccc2c1-c1nn(C(C)(C)C)c(N)c1C(N)=O` [Compound 27, 5-amino-1-(tert-butyl)-3-(2-methylbenzofuran-3-yl)-1H-pyrazole-4-carboxamide], the pIC50 in experiment [1] was 6.15.
For the compound `Nc1ncnc2c1c(-c1ccc3ccccc3c1)nn2CC1CCNCC1` [Compound 7, 3-(naphthalen-2-yl)-1-(piperidin-4-ylmethyl)-1H-pyrazolo[3,4-d]pyrimidin-4-amine, reference compound], the pIC50 in experiment [2] was 9.00.
As to `Cn1nc(N)c2ccc(-c3nn(C(C)(C)C)cc3C(N)=O)cc21` [Compound 29, 3-(3-amino-1-methyl-1H-indazol-6-yl)-1-(tert-butyl)-1H-pyrazole-4-carboxamide], the negative logarithm of the IC50 (pIC50) in experiment [1] (setting [3]) is 7.77.
As to `CCc1ccc2cc(-c3nn(C(C)(C)C)c(N)c3C(N)=O)cnc2c1` [Compound 1592, 5-amino-1-(tert-butyl)-3-(7-ethylquinolin-3-yl)-1H-pyrazole-4-carboxamide], the negative logarithm of the IC50 (pIC50) in experiment [2] was 7.07.
The same measure, in the same setting: the value for `CCOc1ccc2cc(-c3nn(CC4CCCCC4)c(N)c3C(N)=O)cnc2c1` [Compound 1574, 5-amino-1-(cyclohexylmethyl)-3-(7-ethoxyquinolin-3-yl)-1H-pyrazole-4-carboxamide] was 7.52.
Regarding `CCOc1ccc2cc(-c3nn(C(C)(C)C)c4ncnc(N)c34)ccc2c1` [Compound 4, 1-tert-butyl-3-(6-ethoxynaphthalen-2-yl)-1H-pyrazolo[3,4-d]pyrimidin-4-amine, reference compound], the pIC50 in experiment [2] is 7.37.
